PubChem BioAssay AID1963978 (Molecular Pharmacology Branch, DTP, NCI, 2024)

System: 616215-338-R-J1-PDC spheroids with HUVEC/MSC, viability
Assay: Anticancer human tumor 616215-338-R-J1-PDC patient-derived colon adenocarcinoma cell line growth inhibition [PI3K]
Details: for viability, T/C: stronger effect = lower value
How it was run: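 Tumor cells grown as multi-cell spheroids with HUVEC endothelial cells and MSC fibroblast-like stroma were treated with targeted agents combined with inavolisib, alpelisib, duvelisib or copanlisib. Doses fell in half-log steps from near clinical Cmax, else from 10 microM. Viability was measured.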

[1] = curve of first compound, second compound 0.0316 µM
[2] = curve of first compound, second compound 0.1 µM
[3] = curve of first compound, second compound 0.316 µM
[4] = curve of first compound, second compound 1 µM
[5] = second compound 0.0316 µM, first compound 0.0316 µM
[6] = second compound 0.0316 µM, first compound 0.1 µM
[7] = second compound 0.0316 µM, first compound 0.316 µM
[8] = second compound 0.0316 µM, first compound 1 µM
[9] = second compound 0.0316 µM, first compound 3.16 µM
[10] = second compound 0.0316 µM, first compound 10 µM
[11] = second compound 0.1 µM, first compound 0.0316 µM
[12] = second compound 0.1 µM, first compound 0.1 µM
[13] = second compound 0.1 µM, first compound 0.316 µM
[14] = second compound 0.1 µM, first compound 1 µM
[15] = second compound 0.1 µM, first compound 3.16 µM
[16] = second compound 0.1 µM, first compound 10 µM
[17] = second compound 0.316 µM, first compound 0.0316 µM
[18] = second compound 0.316 µM, first compound 0.1 µM
[19] = second compound 0.316 µM, first compound 0.316 µM
[20] = second compound 0.316 µM, first compound 1 µM
[21] = second compound 0.316 µM, first compound 3.16 µM
[22] = second compound 0.316 µM, first compound 10 µM
[23] = second compound 1 µM, first compound 0.0316 µM
[24] = second compound 1 µM, first compound 0.1 µM
[25] = second compound 1 µM, first compound 0.316 µM
[26] = second compound 1 µM, first compound 1 µM
[27] = second compound 1 µM, first compound 3.16 µM
[28] = second compound 1 µM, first compound 10 µM
[29] = curve of first compound, second compound 3.16 µM
[30] = curve of first compound, second compound 10 µM
[31] = second compound 3.16 µM, first compound 0.0316 µM
[32] = second compound 3.16 µM, first compound 0.1 µM
[33] = second compound 10 µM, first compound 0.0316 µM
[34] = second compound 10 µM, first compound 0.1 µM
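Further: spheroids exposed to agents for seven days before the viability read.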

CNC(=O)c1ccc(N2C(=S)N(c3ccc(C#N)c(C(F)(F)F)c3)C(=O)C2(C)C)cc1F + CC(Nc1ccc2c(c1)OCCn1cc(N3C(=O)OCC3C(F)F)nc1-2)C(N)=O
IC50 (curve of first compound, second compound 0.00316 µM): > 10 µM | IC50 (curve of first compound, second compound 0.01 µM): > 10 µM | IC50 [1]: > 10 µM | IC50 [2]: > 10 µM | IC50 [3]: > 10 µM | IC50 [4]: > 10 µM | viability, T/C (second compound 0.00316 µM, first compound 0.0316 µM): 102% | viability, T/C (second compound 0.00316 µM, first compound 0.1 µM): 89.1% | viability, T/C (second compound 0.00316 µM, first compound 0.316 µM): 101% | viability, T/C (second compound 0.00316 µM, first compound 1 µM): 94.5% | viability, T/C (second compound 0.00316 µM, first compound 3.16 µM): 112% | viability, T/C (second compound 0.00316 µM, first compound 10 µM): 100% | viability, T/C (second compound 0.01 µM, first compound 0.0316 µM): 94.7% | viability, T/C (second compound 0.01 µM, first compound 0.1 µM): 101% | viability, T/C (second compound 0.01 µM, first compound 0.316 µM): 98.3% | viability, T/C (second compound 0.01 µM, first compound 1 µM): 105% | viability, T/C (second compound 0.01 µM, first compound 3.16 µM): 99.7% | viability, T/C (second compound 0.01 µM, first compound 10 µM): 95% | viability, T/C [5]: 105% | viability, T/C [6]: 94% | viability, T/C [7]: 102% | viability, T/C [8]: 97.9% | viability, T/C [9]: 99.8% | viability, T/C [10]: 102% | viability, T/C [11]: 102% | viability, T/C [12]: 87.2% | viability, T/C [13]: 110% | viability, T/C [14]: 97.7% | viability, T/C [15]: 96.2% | viability, T/C [16]: 108% | viability, T/C [17]: 95% | viability, T/C [18]: 113% | viability, T/C [19]: 107% | viability, T/C [20]: 102% | viability, T/C [21]: 102% | viability, T/C [22]: 94.5% | viability, T/C [23]: 104% | viability, T/C [24]: 94.2% | viability, T/C [25]: 102% | viability, T/C [26]: 104% | viability, T/C [27]: 104% | viability, T/C [28]: 86.7%

Cn1ncc(Cl)c1-c1cc(C(=O)NC(CN)Cc2cccc(F)c2)sc1Cl (configuration not stated)
viability, T/C (compound 0.0316 µM): 94% [middle of 4 runs] | viability, T/C (compound 0.1 µM): 97.8% [middle of 4 runs] | viability, T/C (compound 0.316 µM): 96.6% [middle of 4 runs] | viability, T/C (compound 1 µM): 97.7% [middle of 4 runs] | viability, T/C (compound 10 µM): 35.6% [middle of 4 runs] | IC50 (curve of compound): 6.53 µM [middle of 4 runs]

CC(C)n1nc(-c2ccc3oc(N)nc3c2)c2c(N)ncnc21 + CC(Nc1ncnc2nc[nH]c12)c1cc2cccc(Cl)c2c(=O)n1-c1ccccc1
IC50 [1]: > 0.1 µM | IC50 [2]: > 0.1 µM | IC50 [3]: > 0.1 µM | IC50 [4]: > 0.1 µM | IC50 [29]: > 0.1 µM | IC50 [30]: > 0.1 µM | viability, T/C (second compound 0.0316 µM, first compound 0.000316 µM): 102% | viability, T/C (second compound 0.0316 µM, first compound 0.001 µM): 103% | viability, T/C (second compound 0.0316 µM, first compound 0.00316 µM): 102% | viability, T/C (second compound 0.0316 µM, first compound 0.01 µM): 124% | viability, T/C [5]: 112% | viability, T/C [6]: 86.9% | viability, T/C (second compound 0.1 µM, first compound 0.000316 µM): 103% | viability, T/C (second compound 0.1 µM, first compound 0.001 µM): 121% | viability, T/C (second compound 0.1 µM, first compound 0.00316 µM): 99.8% | viability, T/C (second compound 0.1 µM, first compound 0.01 µM): 109% | viability, T/C [11]: 120% | viability, T/C [12]: 88.6% | viability, T/C (second compound 0.316 µM, first compound 0.000316 µM): 95.5% | viability, T/C (second compound 0.316 µM, first compound 0.001 µM): 92.8% | viability, T/C (second compound 0.316 µM, first compound 0.00316 µM): 118% | viability, T/C (second compound 0.316 µM, first compound 0.01 µM): 110% | viability, T/C [17]: 101% | viability, T/C [18]: 77.4% | viability, T/C (second compound 1 µM, first compound 0.000316 µM): 94.8% | viability, T/C (second compound 1 µM, first compound 0.001 µM): 106% | viability, T/C (second compound 1 µM, first compound 0.00316 µM): 99.2% | viability, T/C (second compound 1 µM, first compound 0.01 µM): 118% | viability, T/C [23]: 122% | viability, T/C [24]: 80.5% | viability, T/C (second compound 3.16 µM, first compound 0.000316 µM): 123% | viability, T/C (second compound 3.16 µM, first compound 0.001 µM): 103% | viability, T/C (second compound 3.16 µM, first compound 0.00316 µM): 111% | viability, T/C (second compound 3.16 µM, first compound 0.01 µM): 115% | viability, T/C [31]: 128% | viability, T/C [32]: 68.5% | viability, T/C (second compound 10 µM, first compound 0.000316 µM): 110% | viability, T/C (second compound 10 µM, first compound 0.001 µM): 110% | viability, T/C (second compound 10 µM, first compound 0.00316 µM): 102% | viability, T/C (second compound 10 µM, first compound 0.01 µM): 113% | viability, T/C [33]: 112% | viability, T/C [34]: 66.8%

C=CC(=O)N1CCN(c2nc(=O)n(-c3c(C)ccnc3C(C)C)c3nc(-c4c(O)cccc4F)c(F)cc23)C(C)C1 (configuration not stated) + Cc1nc(NC(=O)N2CCCC2C(N)=O)sc1-c1ccnc(C(C)(C)C(F)(F)F)c1
IC50 [1]: > 10 µM | IC50 [2]: > 10 µM | IC50 [3]: > 10 µM | IC50 [4]: > 10 µM | IC50 [29]: > 10 µM | IC50 [30]: > 10 µM | viability, T/C [5]: 104% | viability, T/C [6]: 92.1% | viability, T/C [7]: 99.2% | viability, T/C [8]: 88.3% | viability, T/C [9]: 113% | viability, T/C [10]: 95.2% | viability, T/C [11]: 100% | viability, T/C [12]: 92.7% | viability, T/C [13]: 91.6% | viability, T/C [14]: 98.8% | viability, T/C [15]: 103% | viability, T/C [16]: 90.3% | viability, T/C [17]: 108% | viability, T/C [18]: 103% | viability, T/C [19]: 111% | viability, T/C [20]: 101% | viability, T/C [21]: 104% | viability, T/C [22]: 86.5% | viability, T/C [23]: 97.5% | viability, T/C [24]: 93.3% | viability, T/C [25]: 109% | viability, T/C [26]: 99.1% | viability, T/C [27]: 110% | viability, T/C [28]: 84.9% | viability, T/C [31]: 98.6% | viability, T/C [32]: 98.3% | viability, T/C (second compound 3.16 µM, first compound 0.316 µM): 102% | viability, T/C (second compound 3.16 µM, first compound 1 µM): 89.5% | viability, T/C (second compound 3.16 µM, first compound 3.16 µM): 95.8% | viability, T/C (second compound 3.16 µM, first compound 10 µM): 80.2% | viability, T/C [33]: 94.4% | viability, T/C [34]: 86.7% | viability, T/C (second compound 10 µM, first compound 0.316 µM): 98.7% | viability, T/C (second compound 10 µM, first compound 1 µM): 91.1% | viability, T/C (second compound 10 µM, first compound 3.16 µM): 95.9% | viability, T/C (second compound 10 µM, first compound 10 µM): 83.6%
